{"source": "patent US10206937B2", "about": "“Boronic acid derivatives and therapeutic uses thereof” (Qpex Biopharma, Inc., priority 2014, dated 2019)", "tested_on": "strains of Enterobacteriaceae producing various carbapenemases (class A, D and B; 104 strains)", "experiment": "Antibiotics potentiation by Compound 27 (MIC; meropenem, doripenem, ertapenem, cefepime)", "assay_type": "cell-based", "settings": "+ 27 = with Compound 27 at fixed 4 μg/ml", "data": [{"smiles": "C[C@@H](O)[C@H]1C(=O)N2C(C(=O)O)=C(S[C@@H]3CN[C@H](CNS(N)(=O)=O)C3)[C@H](C)[C@H]12", "note": "[D]", "values": [{"measurement": "MIC", "setting": "strain CF1012 Citrobacter freundii (KPC-2)", "value": "Y (MIC of 1 μg/mL to 10 μg/mL)"}, {"measurement": "MIC", "setting": "strain CF1021 Citrobacter freundii (CMY-type; VIM-1)", "value": "Y (MIC of 1 μg/mL to 10 μg/mL)"}, {"measurement": "MIC", "setting": "strain CF1022 Citrobacter freundii (SHV-12(2be), TEM-OSBL(2b); IMP-8)", "value": "Y (MIC of 1 μg/mL to 10 μg/mL)"}, {"measurement": "MIC", "setting": "strain CF1023 Citrobacter freundii (SHV-12(2be), TEM-OSBL(2b); CTX-M-3; CMY-34; NDM-1)", "value": "Z (MIC of greater than 10 μg/mL)"}, {"measurement": "MIC", "setting": "strain CL1080 Enterobacter cloacae (IMP-1)", "value": "X (MIC of less than 1 μg/mL)"}, {"measurement": "MIC", "setting": "strain EA1019 Enterobacter aerogenes (SHV-5, VIM-1)", "value": "Z (MIC of greater than 10 μg/mL)"}, {"measurement": "MIC", "setting": "strain EC1007 Escherichia coli (KPC-3)", "value": "X (MIC of less than 1 μg/mL)"}, {"measurement": "MIC", "setting": "strain EC1061 Escherichia coli (NDM-1, CMY-6)", "value": "Z (MIC of greater than 10 μg/mL)"}, {"measurement": "MIC", "setting": "strain EC1062 Escherichia coli (OXA-48, CTX-M-15)", "value": "X (MIC of less than 1 μg/mL)"}, {"measurement": "MIC", "setting": "strain EC1064 Escherichia coli (NDM-1, CMY-6, CTX-M-15)", "value": "Z (MIC of greater than 10 μg/mL)"}, {"measurement": "MIC", "setting": "strain EC1065 Escherichia coli (IMP-1)", "value": "Y (MIC of 1 μg/mL to 10 μg/mL)"}, {"measurement": "MIC", "setting": "strain EC1068 Escherichia coli (VIM-1)", "value": "Z (MIC of greater than 10 μg/mL)"}, {"measurement": "MIC", "setting": "strain EC1069 Escherichia coli (CTX-M-27; NDM-1)", "value": "Z (MIC of greater than 10 μg/mL)"}, {"measurement": "MIC", "setting": "strain EC1070 Escherichia coli (TEM-OSBL(2b); CMY-42; NDM-5)", "value": "Z (MIC of greater than 10 μg/mL)"}, {"measurement": "MIC", "setting": "strain EC1072 Escherichia coli (CTX-M-3; NDM-1)", "value": "Z (MIC of greater than 10 μg/mL)"}, {"measurement": "MIC", "setting": "strain ECL1004 Enterobacter cloacae (NMC-A)", "value": "Y (MIC of 1 μg/mL to 10 μg/mL)"}, {"measurement": "MIC", "setting": "strain ECL1026 Enterobacter cloacae (KPC-2, TEM-1)", "value": "Y (MIC of 1 μg/mL to 10 μg/mL)"}, {"measurement": "MIC", "setting": "strain ECL1036 Enterobacter cloacae (KPC-3, TEM-1)", "value": "Y (MIC of 1 μg/mL to 10 μg/mL)"}, {"measurement": "MIC", "setting": "strain ECL1045 Enterobacter cloacae (VIM-1)", "value": "Y (MIC of 1 μg/mL to 10 μg/mL)"}, {"measurement": "MIC", "setting": "strain ECL1055 Enterobacter cloacae (KPC-3, TEM)", "value": "Y (MIC of 1 μg/mL to 10 μg/mL)"}, {"measurement": "MIC", "setting": "strain ECL1057 Enterobacter cloacae (NDM-1, TEM-1, CTX-M-15)", "value": "Z (MIC of greater than 10 μg/mL)"}, {"measurement": "MIC", "setting": "strain ECL1058 Enterobacter cloacae (KPC-3, SHV-11, TEM-1)", "value": "Z (MIC of greater than 10 μg/mL)"}, {"measurement": "MIC", "setting": "strain ECL1059 Enterobacter cloacae (KPC-3, SHV-12, TEM-1)", "value": "Y (MIC of 1 μg/mL to 10 μg/mL)"}, {"measurement": "MIC", "setting": "strain ECL1061 Enterobacter cloacae (KPC-3, Hyper AmpC expression)", "value": "Y (MIC of 1 μg/mL to 10 μg/mL)"}, {"measurement": "MIC", "setting": "strain ECL1082 Enterobacter cloacae (VIM-1)", "value": "Z (MIC of greater than 10 μg/mL)"}, {"measurement": "MIC", "setting": "strain ECL1084 Enterobacter cloacae (CTX-M-15; ACT-16; NDM-1)", "value": "Z (MIC of greater than 10 μg/mL)"}, {"measurement": "MIC", "setting": "strain ECL1085 Enterobacter cloacae (SHV-31(2be), TEM-1(2b); CTX-M-15; NDM-1)", "value": "Z (MIC of greater than 10 μg/mL)"}, {"measurement": "MIC", "setting": "strain ECL1086 Enterobacter cloacae (VIM-31, OXA-48(c))", "value": "Y (MIC of 1 μg/mL to 10 μg/mL)"}, {"measurement": "MIC", "setting": "strain ECL1087 Enterobacter cloacae (VIM-1)", "value": "Z (MIC of greater than 10 μg/mL)"}, {"measurement": "MIC", "setting": "strain ECL1088 Enterobacter cloacae (TEM-1(2b); CTX-M-14; ACT-type; VIM-1)", "value": "Z (MIC of greater than 10 μg/mL)"}, {"measurement": "MIC", "setting": "strain ECL1089 Enterobacter cloacae (ACT-type; IMP-1)", "value": "Z (MIC of greater than 10 μg/mL)"}, {"measurement": "MIC", "setting": "strain ECL1090 Enterobacter cloacae (TEM-1(2b); CTX-M-22; ACT-type; IMP-8)", "value": "Y (MIC of 1 μg/mL to 10 μg/mL)"}, {"measurement": "MIC", "setting": "strain ECL1091 Enterobacter cloacae (VIM-1)", "value": "Z (MIC of greater than 10 μg/mL)"}, {"measurement": "MIC", "setting": "strain ECL1092 Enterobacter cloacae (TEM-OSBL(2b); ACT-32; VIM-1)", "value": "Y (MIC of 1 μg/mL to 10 μg/mL)"}, {"measurement": "MIC", "setting": "strain ECL1093 Enterobacter cloacae (TEM-OSBL(2b); ACT-32; VIM-1)", "value": "Y (MIC of 1 μg/mL to 10 μg/mL)"}, {"measurement": "MIC", "setting": "strain ECL1094 Enterobacter cloacae (VIM-1)", "value": "Z (MIC of greater than 10 μg/mL)"}, {"measurement": "MIC", "setting": "strain ECL1096 Enterobacter cloacae (CMY-4, VIM-4, OXA-48(c))", "value": "Y (MIC of 1 μg/mL to 10 μg/mL)"}, {"measurement": "MIC", "setting": "strain ECL1097 Enterobacter cloacae (SHV-31(2be), TEM-OSBL(2b); CTX-M-15; ACT-31; NDM-1)", "value": "Z (MIC of greater than 10 μg/mL)"}, {"measurement": "MIC", "setting": "strain ECL1098 Enterobacter cloacae (TEM-OSBL(2b); DHA-1; ACT-16; NDM-1)", "value": "Z (MIC of greater than 10 μg/mL)"}, {"measurement": "MIC", "setting": "strain KP1001 Klebsiella pneumoniae (KPC TEM SHV)", "value": "Z (MIC of greater than 10 μg/mL)"}, {"measurement": "MIC", "setting": "strain KP1002 Klebsiella pneumoniae (KPC TEM SHV)", "value": "Y (MIC of 1 μg/mL to 10 μg/mL)"}, {"measurement": "MIC", "setting": "strain KP1003 Klebsiella pneumoniae (KPC TEM SHV)", "value": "Y (MIC of 1 μg/mL to 10 μg/mL)"}, {"measurement": "MIC", "setting": "strain KP1004 Klebsiella pneumoniae (KPC-2, TEM-1, SHV-11)", "value": "Y (MIC of 1 μg/mL to 10 μg/mL)"}, {"measurement": "MIC", "setting": "strain KP1008 Klebsiella pneumoniae (KPC-2)", "value": "X (MIC of less than 1 μg/mL)"}, {"measurement": "MIC", "setting": "strain KP1014 Klebsiella pneumoniae (VIM-1, TEM, SHV)", "value": "Z (MIC of greater than 10 μg/mL)"}, {"measurement": "MIC", "setting": "strain KP1054 Klebsiella pneumoniae (VIM-1, SHV-11)", "value": "Z (MIC of greater than 10 μg/mL)"}, {"measurement": "MIC", "setting": "strain KP1059 Klebsiella pneumoniae (VIM-1, SHV-11)", "value": "Z (MIC of greater than 10 μg/mL)"}, {"measurement": "MIC", "setting": "strain KP1061 Klebsiella pneumoniae (KPC-3, SHV-11, TEM-1)", "value": "Z (MIC of greater than 10 μg/mL)"}, {"measurement": "MIC", "setting": "strain KP1064 Klebsiella pneumoniae (KPC-2, SHV-11, TEM-1)", "value": "Z (MIC of greater than 10 μg/mL)"}, {"measurement": "MIC", "setting": "strain KP1065 Klebsiella pneumoniae (VIM-1, SHV-11)", "value": "Y (MIC of 1 μg/mL to 10 μg/mL)"}, {"measurement": "MIC", "setting": "strain KP1070 Klebsiella pneumoniae (KPC-2, SHV-11, TEM-1)", "value": "Y (MIC of 1 μg/mL to 10 μg/mL)"}, {"measurement": "MIC", "setting": "strain KP1074 Klebsiella pneumoniae (KPC-3, SHV-11, TEM)", "value": "Z (MIC of greater than 10 μg/mL)"}]}]}
